Assay results as given in patent publication US20220151887A1 (AQUA BANK CO.,LTD., priority 2019, published 2022).

Experiments:
[1] = Method: (§1) The selection criteria were good health and no smoking. The subjects were allowed to sit in a sitting position for 30 minutes after entering a test room set at a room temperature of 24° C. and a relative humidity of 50% to acclimatize to the experimental environment. After acclimation, physiological measurements were conducted. As the physiological measurements, skin temperature measurements were performed.
<<Evaluation of Pupil Contraction Rate in Pupil Reaction to Light by Measuring Pupil Reaction to Light (Single Time Evaluation Test (FIG. 6))>>
After confirming that the pupil dilatation was stable, light stimulation was given for 0.1 seconds. […] The pupil contraction rate (CR), which is the rate of pupil contraction, was determined by the following expression:
Note that the pupil rapidly dilates after it contracts, and the pupil expanding speed (vd) at that time reflects the state of sympathetic nervous activity. The predominance of sympathetic nervous activity and parasympathetic nervous activity in autonomous nervous activity was determined by analysis of changes in pupil diameter.

[2] = remark: listed apart in the source
Method: as §1
<<Evaluation of Sympathetic Nervous Activity by Measuring Skin Temperature ((Single Time Evaluation Test (FIG. 7))>>
Since many of the peripheral blood vessel networks are controlled by sympathetic nervous activity, the predominance or inferiority of sympathetic nervous activity can be evaluated by measuring changes in blood flow in the peripheral site or changes in skin temperature in the peripheral site. Therefore, in this verification, the change in skin temperature was used as the index. In other words, changes in the skin temperatures (at the center of the forehead and the first segment pad of the index finger) of the peripheral site were measured by a temperature sensor (manufactured by Gram Corporation). The increased skin temperature in the test product is determined by the following expression:
where H1 is the temperature of the forehead center part of the control, F1 is the temperature of the finger pad center part of the control, H2 is the temperature of the forehead center part of the sample, and F2 is the temperature of the finger pad center part of the sample.
Note that, in the measurement data analysis in the physiological evaluation, the difference between the control and the blank and the difference between the test product and the blank were compared using the t-test. The significance level of the t-test was set to less than 5%.

[3] = hydrogen continuous use period 2 weeks, cheek, not significant vs non-continuous use period
Method: (§2) During the test period, each subject was required to perform the same skin care method as they do on a daily basis, and not to add or change cosmetics or supplements.
In other words, the subjects were divided into two groups, Group A and Group B each having 11 subjects. […] Skin physiological measurements were conducted at the start of the test (zero week), the second and fourth weeks (actually, the subjects also answered questionnaires of the 30 items of the stress checklist and the multifaceted emotion scale for verification of influences on stress, which is a factor of increased skin metabolism, as is omitted here). […]
(§3) The skin physiological measurements include: the stratum corneum water content; transepidermal water loss; skin viscoelasticity; skin color; facial image analysis by photographing with a digital imaging device (VSIA); and skin blood flow measurement with a non-contact blood flow meter. […] In the measurements listed below, the cheek site, which was the measurement site, was measured after 15 minutes of acclimation in a constant temperature and humidity chamber (temperature 20±2° C., humidity 50±10%) after the face washing. What was measured in each measurement are described below.
The degree of skin moisturization was determined by measuring the stratum corneum water content. […]

[4] = remark: listed apart in the source
Method: as §2
(§4) In other words, the subjects were divided into two groups, Group A and Group B each having 11 subjects. […] Skin physiological measurements were conducted at the start of the test (zero week), the second and fourth weeks (actually, the subjects also answered questionnaires of the 30 items of the stress checklist and the multifaceted emotion scale for verification of influences on stress, which is a factor of increased skin metabolism, as is omitted here). The measurement items include: the stratum corneum water content; transepidermal water loss; skin viscoelasticity; skin color; facial image analysis by photographing with a digital imaging device (VSIA); and skin blood flow measurement with a non-contact blood flow meter.
(§5) The subjects executed the inhalation for five minutes each time in the morning and evening and approximately 1 hour after each meal, as in the single time test, with the goal of using five times a day.
as §3, with “below. […]” for “below.”
(§6) The p-value was calculated as the probability to determine whether there was a statistically significant difference in the difference average values of the respective groups, and the effect size was calculated as an index representing the magnitude of the difference between the difference average values, so that the two groups are compared with each other.

[5] = hydrogen continuous use period 2 weeks, difference not significant
Method: as §2, §4, §5, §3
The measurements were performed at zero, second and fourth weeks.

[6] = remark: listed apart in the source
Method: as §2, §4, §5, §3
Skin images of the measurement site were photographed using VISIA (registered trademark) Evolution (Canfield Imaging Systems), and each skin property was analyzed. The software attached to the device was used to measure the scores of pores, spots, wrinkles, texture, redness, porphyrin, and brown spots. The measurements were performed at zero, second and fourth weeks.
as §6

[7] = hydrogen continuous use period vs non-continuous use period
[8] = hydrogen continuous use period vs nonuse period

## [HH] [hydrogen]
[1]; after hydrogen inhalation (not shown)
  pupil expanding speed (vd): almost unchanged
[1]; after hydrogen inhalation for 1, 3, 5, 7 and 9 minutes (FIG. 6)
  pupil contraction rate in the pupil reaction to light: increased significantly in a time-dependent manner
[1]; after hydrogen inhalation, especially 5 minutes or more, vs before inhalation, p<0.001
  pupil contraction rate CR: significantly increased
[2]; hydrogen inhalation for 5 minutes vs control, 17 subjects, p<0.001
  skin temperature of the index finger, average increase: 3.6 °C
[2]; hydrogen inhalation for 5 minutes vs spontaneous breathing control
  skin temperature of the forehead, change: hardly found to change
[2]; hydrogen inhalation for 5 minutes, some subjects
  skin temperature of the index finger, increase in individual subjects: ≥ 6 °C
[3]; 5 min about five times a day
  skin (stratum corneum) water content, difference average value: +34.9 μS
[3]
  transepidermal water loss, difference average value: +34.9
[4]; hydrogen continuous use period 2 weeks, cheek, p 0.028 vs nonuse period
  instantaneous skin return rate R7 (Ur/Uf), difference average value: 0.01
[4]; hydrogen continuous use period vs hydrogen nonuse period
  R7 (Ur/Uf) effect size: 0.74
[4]; hydrogen use period 2 weeks, cheek, p 0.076 vs nonuse period
  skin return rate R2, difference average value: 0.01
[5]; cheek
  skin color ΔL* (black and white degree), difference average value: +0.30
  skin color Δa* (redness degree), difference average value: −0.23
  skin color Δb* (yellowness degree), difference average value: −0.20
[5]; entire face
  skin blood flow changes, difference average value: −0.20
[6]; hydrogen continuous use period 2 weeks, difference not significant
  number of porphyrins, difference average value: −103.05
[6]; hydrogen continuous use period 2 weeks, p 0.0012 vs nonuse period
  number of spots, difference average value: −1.8
[6]; hydrogen continuous use period 2 weeks, p 0.042 vs non-continuous use period
  redness of the skin color, difference average value: −5.1
[6]; hydrogen continuous use period 2 weeks, p 0.046 vs nonuse period
  number of brown spots, difference average value: −13.7
[6]; [7]
  VISIA pores, measured values: no difference
  VISIA texture, measured values: no difference
  VISIA wrinkles, measured values: no difference
  redness, effect size: 0.65
[6]; [8]
  number of brown spots, effect size: 0.68
  number of spots, effect size: 0.86
